Reference: patent publication US8389500B2, “Fused heterocyclic compounds as ion channel modulators” (Gilead Sciences, Inc., priority 2008, dated 2013)

Target: T1, wild-type human cardiac sodium channel, hNav1.5 (late sodium current) (Homo sapiens, UniProt Q14524)
T1 construct: host or cells: HEK293
Assay: Late INa screening assay (PatchXpress whole cell patch clamp)
Assay type: cell-based
Settings: 1 μM test compound; HEK293 hNav1.5; late INa generated with 10 μM Tefluthrin (some experiments 50 nM ATX II); read-out: Late INa % blk (1 μM test cmpd)
Method: The late sodium current (Late INa) and peak sodium current (Peak INa) assays are performed on an automated electrophysiology platform, PatchXpress 7000A (MDS Analytical Technologies, Sunnyvale, Calif.), which uses the whole cell patch clamp technique to measure currents through the cell membrane of up to 16 cells at a time. The assay uses an HEK293 (human embryonic kidney) cell line heterologously expressing the wild-type human cardiac sodium channel, hNav1.5, purchased from Millipore (Billerica, Mass.). No beta subunits were coexpressed with the Na channel alpha subunit. Cells are maintained with standard tissue culture procedures and stable channel expression is maintained with 400 μg/ml Geneticin in the culture medium. […] Experiments are carried out at 24-27° C.
For both the Late INa and Peak INa assays, series resistance compensation is set to 50% and whole-cell compensation is performed automatically. […] Currents through open sodium channels are automatically recorded and stored in the DataXpress2 database (MDS Analytical Technologies, Sunnyvale, Calif.). Analysis is performed using DataXpress2 analysis software and data are compiled in Excel.
Compound stocks are routinely made in glass vials to 10 mM in dimethyl sulfoxide (DMSO). In some cases, when compounds are not soluble in DMSO, they are made in 100% ethanol. Stocks are sonicated as necessary. The extracellular solution for screening Late INa is composed of: 140 mM NaCl, 4 mM KCl, 1.8 mM CaCl2, 0.75 mM MgCl2, and 5 mM HEPES with pH adjusted to 7.4 using NaOH. The extracellular solution for screening Peak INa is composed of: 20 mM NaCl, 120 mM N-methyl-D glucamine, 4 mM KCl, 1.8 mM CaCl2, 0.75 mM MgCl2, and 5 mM HEPES with pH adjusted to 7.4 using HCl. The intracellular solution used to perfuse the inside of the cells for both the Late INa and Peak INa assays contains: 120 mM CsF, 20 mM CsCl, 5 mM EGTA, 5 mM HEPES and pH adjusted to 7.4 with CsOH. […] The 0Na extracellular solution used at the end of each experiment for the Late INa and Peak INa assays to measure baseline current contains: 140 mM N-methyl-D-glucamine; 4 mM KCl; 1.8 mM CaCl2; 0.75 mM MgCl2; 5 mM HEPES and pH was adjusted to 7.4 with HCl.
For the Late INa assay, sodium channels are activated every 10 seconds (0.1 Hz) by depolarizing the cell membrane to −20 mV for 250 milliseconds (ms) from a holding potential of −120 mV. In response to a −20 mV voltage step, typical Nav1.5 sodium currents activate rapidly to a peak negative current and then inactivate nearly completely within […].
All compounds are tested to determine their activity in blocking the late sodium current. Late INa current is generated by adding 10 μM Tefluthrin (pyrethroid) to the extracellular solution while recording Na currents For some experiments, 50 nM ATX II (sea anemone toxin), another late Na activator, was used to generate the late component. […] After establishing the whole cell recording configuration, late INa activators are added to each well 4 times over a 16-17 minute period so that the late component of the Na current reaches a stable value. […] Measurements are made at the end of exposure to the third compound addition and values are normalized to the current level when all Na^+ is removed from the extracellular solution after two additions of ONa-ECF. Results are reported as percent block of late INa

T1 sequence (Q14524 whole entry): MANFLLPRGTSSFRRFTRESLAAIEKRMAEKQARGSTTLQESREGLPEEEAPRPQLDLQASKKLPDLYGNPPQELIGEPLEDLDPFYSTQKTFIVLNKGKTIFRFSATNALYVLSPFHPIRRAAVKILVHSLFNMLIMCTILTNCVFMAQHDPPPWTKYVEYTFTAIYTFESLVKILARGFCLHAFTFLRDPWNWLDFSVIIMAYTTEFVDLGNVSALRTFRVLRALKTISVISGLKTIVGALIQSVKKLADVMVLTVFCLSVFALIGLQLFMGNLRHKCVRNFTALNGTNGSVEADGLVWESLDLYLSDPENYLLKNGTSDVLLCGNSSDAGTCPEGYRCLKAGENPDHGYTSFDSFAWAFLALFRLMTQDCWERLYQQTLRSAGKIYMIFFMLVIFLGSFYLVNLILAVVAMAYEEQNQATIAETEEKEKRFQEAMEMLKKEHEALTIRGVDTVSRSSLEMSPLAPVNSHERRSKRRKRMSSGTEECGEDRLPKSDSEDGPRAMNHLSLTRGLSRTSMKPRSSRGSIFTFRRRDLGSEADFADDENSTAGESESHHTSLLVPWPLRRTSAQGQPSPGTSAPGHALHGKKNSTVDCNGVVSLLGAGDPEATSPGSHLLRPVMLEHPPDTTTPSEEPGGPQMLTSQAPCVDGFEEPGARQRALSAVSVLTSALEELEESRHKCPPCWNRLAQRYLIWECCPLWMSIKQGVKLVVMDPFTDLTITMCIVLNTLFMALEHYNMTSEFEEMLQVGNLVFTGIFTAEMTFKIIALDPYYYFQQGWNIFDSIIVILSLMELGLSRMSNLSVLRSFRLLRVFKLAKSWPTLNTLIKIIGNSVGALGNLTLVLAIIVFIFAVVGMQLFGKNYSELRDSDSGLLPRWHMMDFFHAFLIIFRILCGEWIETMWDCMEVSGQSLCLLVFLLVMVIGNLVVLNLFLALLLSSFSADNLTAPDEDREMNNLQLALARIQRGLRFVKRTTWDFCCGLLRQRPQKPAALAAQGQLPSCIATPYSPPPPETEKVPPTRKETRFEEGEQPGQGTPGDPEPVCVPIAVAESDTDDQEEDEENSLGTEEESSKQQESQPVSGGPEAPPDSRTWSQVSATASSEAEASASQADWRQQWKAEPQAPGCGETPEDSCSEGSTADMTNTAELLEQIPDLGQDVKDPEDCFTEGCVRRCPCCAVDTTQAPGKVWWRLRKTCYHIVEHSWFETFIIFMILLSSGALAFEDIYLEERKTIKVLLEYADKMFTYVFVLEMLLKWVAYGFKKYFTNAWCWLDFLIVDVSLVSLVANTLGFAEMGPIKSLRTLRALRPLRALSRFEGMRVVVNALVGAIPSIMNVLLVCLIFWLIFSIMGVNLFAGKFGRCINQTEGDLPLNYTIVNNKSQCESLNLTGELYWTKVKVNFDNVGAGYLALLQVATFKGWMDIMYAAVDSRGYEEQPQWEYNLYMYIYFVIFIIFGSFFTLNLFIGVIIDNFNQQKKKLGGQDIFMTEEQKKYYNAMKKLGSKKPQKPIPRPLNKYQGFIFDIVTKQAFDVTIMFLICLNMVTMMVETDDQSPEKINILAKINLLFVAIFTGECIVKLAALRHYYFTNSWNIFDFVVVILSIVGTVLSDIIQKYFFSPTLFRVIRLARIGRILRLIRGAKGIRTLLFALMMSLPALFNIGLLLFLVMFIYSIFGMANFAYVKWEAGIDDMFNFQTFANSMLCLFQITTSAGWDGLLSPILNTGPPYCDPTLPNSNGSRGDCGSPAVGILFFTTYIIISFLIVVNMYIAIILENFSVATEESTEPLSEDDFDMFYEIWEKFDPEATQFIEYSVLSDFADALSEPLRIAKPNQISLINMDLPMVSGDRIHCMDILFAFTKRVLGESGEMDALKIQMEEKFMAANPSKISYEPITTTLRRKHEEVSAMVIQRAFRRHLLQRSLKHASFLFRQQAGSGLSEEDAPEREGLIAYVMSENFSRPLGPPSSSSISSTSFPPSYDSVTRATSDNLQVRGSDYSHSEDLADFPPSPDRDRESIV

Row | Compound | inhibition at 1 µM
1 | CS(=O)(=O)Nc1ccc(-c2cccc(OC(F)(F)F)c2)c(Cl)c1 [PT-021, N-[2-chloro-3′-(trifluoromethoxy)biphenyl-4-yl]methanesulfonamide] | 34%
2 | CS(=O)(=O)Nc1ccc(-c2ccc(F)c(Cl)c2)c(Cl)c1 [PT-038, N-(2,3′-dichloro-4′-fluorobiphenyl-4-yl)methanesulfonamide] | 28.8%
3 | Cc1cc(-c2ccc(Oc3ccccc3)cc2)c(Cl)cc1NS(C)(=O)=O [PT-041, N-(2-chloro-5-methyl-4′-phenoxybiphenyl-4-yl)methanesulfonamide] | 45%
4 | CS(=O)(=O)Nc1ccc(-c2ccc(Cl)cc2)c(Cl)c1 [PT-043, N-(2,4′-dichlorobiphenyl-4-yl)methanesulfonamide] | 17.4%

Same assay, conditions: 10 μM test compound; HEK293 hNav1.5; late INa generated with 10 μM Tefluthrin (some experiments 50 nM ATX II); read-out: Late INa % blk (10 μM test cmpd)

Row | Compound | inhibition at 10 µM
5 | CS(=O)(=O)Nc1ccc(-c2ccc(F)c(F)c2)cc1 [PT-002, N-(3′,4′-difluorobiphenyl-4-yl)methanesulfonamide] | 21.8%
6 | COc1cc(NS(C)(=O)=O)ccc1-c1ccc(C(F)(F)F)cc1 [PT-004, N-[2-methoxy-4′-(trifluoromethyl)biphenyl-4-yl]methanesulfonamide] | 42.8%
7 | CS(=O)(=O)Nc1ccc(-c2ccc(Cl)c(F)c2)cc1 [PT-005, N-(4′-chloro-3′-fluorobiphenyl-4-yl)methanesulfonamide] | 20.5%
8 | CS(=O)(=O)Nc1ccc(-c2ccc(C(F)(F)F)cc2)cc1 [PT-006, N-[4′-(trifluoromethyl)biphenyl-4-yl]methanesulfonamide] | 22.7%
9 | CS(=O)(=O)Nc1ccc(-c2ccc(F)c(Cl)c2)cc1 [PT-007, N-(3′-chloro-4′-fluorobiphenyl-4-yl)methanesulfonamide] | 34.9%
10 | CS(=O)(=O)Nc1ccc(-c2cccc(OC(F)(F)F)c2)cc1 [PT-008, N-[3′-(trifluoromethoxy)biphenyl-4-yl]methanesulfonamide] | 39.4%
11 | COc1cc(NS(C)(=O)=O)ccc1-c1ccc(OC(F)(F)F)cc1 [PT-009, N-[2-methoxy-4′-(trifluoromethoxy)biphenyl-4-yl]methanesulfonamide] | 20.9%
12 | COc1cc(NS(C)(=O)=O)ccc1-c1cccc(OC(F)(F)F)c1 [PT-010, N-[2-methoxy-3′-(trifluoromethoxy)biphenyl-4-yl]methanesulfonamide] | 48.2%
13 | COc1cc(NS(C)(=O)=O)ccc1-c1ccccc1OC(F)(F)F [PT-011, N-[2-methoxy-2′-(trifluoromethoxy)biphenyl-4-yl]methanesulfonamide] | 47.6%
14 | CS(=O)(=O)Nc1ccc(-c2ccc(Cl)c(F)c2)c(C(F)(F)F)c1 [PT-012, N-[4′-chloro-3′-fluoro-2-(trifluoromethyl)biphenyl-4-yl]methanesulfonamide] | 52%
15 | CS(=O)(=O)Nc1ccc(-c2ccc(OC(F)(F)F)cc2)c(C(F)(F)F)c1 [PT-014, N-[4′-(trifluoromethoxy)-2-(trifluoromethyl)biphenyl-4-yl]methanesulfonamide] | 50.5%
16 | CS(=O)(=O)Nc1ccc(-c2cccc(OC(F)(F)F)c2)c(C(F)(F)F)c1 [PT-015, N-[3′-(trifluoromethoxy)-2-(trifluoromethyl)biphenyl-4-yl]methanesulfonamide] | 60.8%
17 | CS(=O)(=O)Nc1ccc(-c2ccccc2OC(F)(F)F)c(C(F)(F)F)c1 [PT-016, N-[2′-(trifluoromethoxy)-2-(trifluoromethyl)biphenyl-4-yl]methanesulfonamide] | 45.8%
18 | CCOC(=O)CN(c1ccc(-c2ccc(Cl)c(F)c2)c(OC)c1)S(C)(=O)=O [PT-019, ethyl N-(4′-chloro-3′-fluoro-2-methoxybiphenyl-4-yl)-N-(methylsulfonyl)glycinate] | 55%
19 | CCOC(=O)CN(c1ccc(-c2cccc(OC(F)(F)F)c2)c(OC)c1)S(C)(=O)=O [PT-020, ethyl N-[2-methoxy-3′-(trifluoromethoxy)biphenyl-4-yl]-N-(methylsulfonyl)glycinate] | 52.9%
20 | CS(=O)(=O)Nc1ccc(-c2cccc(OC(F)(F)F)c2)c(Cl)c1 [PT-021, N-[2-chloro-3′-(trifluoromethoxy)biphenyl-4-yl]methanesulfonamide] | 77.5%
21 | CS(=O)(=O)Nc1ccc(-c2ccc(F)c(F)c2)c(Cl)c1 [PT-023, N-(2-chloro-3′,4′-difluorobiphenyl-4-yl)methanesulfonamide] | 48.2%
22 | CS(=O)(=O)Nc1ccc(-c2ccc(F)cc2F)c(Cl)c1 [PT-024, N-(2-chloro-2′,4′-difluorobiphenyl-4-yl)methanesulfonamide] | 43.5%

Row | Compound | inhibition at 10 µM
23 | CCOC(=O)CN(c1ccc(-c2ccc(Cl)c(F)c2)c(Cl)c1)S(C)(=O)=O [PT-025, ethyl N-(2,4′-dichloro-3′-fluorobiphenyl-4-yl)-N-(methylsulfonyl)glycinate] | 60%
24 | CCCS(=O)(=O)Nc1ccc(-c2ccc(Cl)c(F)c2)c(Cl)c1 [PT-027, N-(2,4′-dichloro-3′-fluorobiphenyl-4-yl)propane-1-sulfonamide] | 55.5%
25 | CCOC(=O)CN(c1ccc(-c2cccc(OC(F)(F)F)c2)c(Cl)c1)S(C)(=O)=O [PT-028, ethyl N-[2-chloro-3′-(trifluoromethoxy)biphenyl-4-yl]-N-(methylsulfonyl)glycinate] | 62.1%
26 | CS(=O)(=O)N(CC(=O)O)c1ccc(-c2cccc(OC(F)(F)F)c2)c(Cl)c1 [PT-029, N-[2-chloro-3′-(trifluoromethoxy)biphenyl-4-yl]-N-(methylsulfonyl)glycine] | 28.4%
27 | CS(=O)(=O)Nc1ccc(-c2ccc(F)c(Cl)c2)cc1Cl [PT-030, N-(3,3′-dichloro-4′-fluorobiphenyl-4-yl)methanesulfonamide] | 41.4%
28 | COc1cc(NS(C)(=O)=O)ccc1-c1ccc(F)cc1 [PT-031, N-(4′-fluoro-2-methoxybiphenyl-4-yl)methanesulfonamide] | 17.1%
29 | COc1cc(NS(C)(=O)=O)ccc1-c1ccc(Cl)cc1 [PT-032, N-(4′-chloro-2-methoxybiphenyl-4-yl)methanesulfonamide] | 42%
30 | CS(=O)(=O)Nc1ccc(-c2ccc(Oc3ccccc3)cc2)cc1 [PT-033, N-(4′-phenoxybiphenyl-4-yl)methanesulfonamide] | 15.1%
31 | CS(=O)(=O)Nc1ccc(-c2ccccc2F)c(Cl)c1 [PT-035, N-(2-chloro-2′-fluorobiphenyl-4-yl)methanesulfonamide] | 48.2%
32 | CS(=O)(=O)Nc1ccc(-c2cccc(C(F)(F)F)c2)c(Cl)c1 [PT-036, N-[2-chloro-3′-(trifluoromethyl)biphenyl-4-yl]methanesulfonamide] | 64.1%
33 | CS(=O)(=O)Nc1ccc(-c2ccc(F)cc2)c(Cl)c1 [PT-037, N-(2-chloro-4′-fluorobiphenyl-4-yl)methanesulfonamide] | 40.4%
34 | CS(=O)(=O)Nc1ccc(-c2ccc(F)c(Cl)c2)c(Cl)c1 [PT-038, N-(2,3′-dichloro-4′-fluorobiphenyl-4-yl)methanesulfonamide] | 71%
35 | Cc1cc(NS(C)(=O)=O)ccc1-c1ccc(F)c(Cl)c1 [PT-039, N-(3′-chloro-4′-fluoro-2-methylbiphenyl-4-yl)methanesulfonamide] | 62.9%
36 | Cc1cc(-c2ccc(Oc3ccccc3)cc2)c(Cl)cc1NS(C)(=O)=O [PT-041, N-(2-chloro-5-methyl-4′-phenoxybiphenyl-4-yl)methanesulfonamide] | 59.3%
37 | Cc1cc(-c2ccc(Oc3ccccc3)cc2)ccc1NS(C)(=O)=O [PT-042, N-(3-methyl-4′-phenoxybiphenyl-4-yl)methanesulfonamide] | 25.5%
38 | CS(=O)(=O)Nc1ccc(-c2ccc(Cl)cc2)c(Cl)c1 [PT-043, N-(2,4′-dichlorobiphenyl-4-yl)methanesulfonamide] | 71.5%
39 | COC(=O)c1ccc(-c2ccc(NS(C)(=O)=O)cc2Cl)cc1 [PT-044, methyl 2′-chloro-4′-[(methylsulfonyl)amino]biphenyl-4-carboxylate] | 50.6%
40 | CS(=O)(=O)Nc1ccc(-c2ccc(F)cc2Cl)c(Cl)c1 [PT-045, N-(2,2′-dichloro-4′-fluorobiphenyl-4-yl)methanesulfonamide] | 57.5%
